Measurements taken from US12122761B2, “2-azaspiro[3.4]octane derivatives as M4 agonists” (NOVARTIS AG, priority 2019, dated 2024).

Key:
[1] = target: T1, human cloned CHRM2 receptor (M2_CHO cells) (Homo sapiens, UniProt P08172); test: CHRM2 Ca++ Flux Assay (agonist mode, FDSS 7000EX); assay type: cell-based; details: for Emax: Percent Activity measured to EC100 of Carbachol, read-out: M2 FDSS PA; for EC50: agonist mode, geometric mean if tested more than once, read-out: M2 FDSS EC50
T1 construct: expressed in transfected cells; host or cells: CHO-K1
T1 sequence (P08172 1-466): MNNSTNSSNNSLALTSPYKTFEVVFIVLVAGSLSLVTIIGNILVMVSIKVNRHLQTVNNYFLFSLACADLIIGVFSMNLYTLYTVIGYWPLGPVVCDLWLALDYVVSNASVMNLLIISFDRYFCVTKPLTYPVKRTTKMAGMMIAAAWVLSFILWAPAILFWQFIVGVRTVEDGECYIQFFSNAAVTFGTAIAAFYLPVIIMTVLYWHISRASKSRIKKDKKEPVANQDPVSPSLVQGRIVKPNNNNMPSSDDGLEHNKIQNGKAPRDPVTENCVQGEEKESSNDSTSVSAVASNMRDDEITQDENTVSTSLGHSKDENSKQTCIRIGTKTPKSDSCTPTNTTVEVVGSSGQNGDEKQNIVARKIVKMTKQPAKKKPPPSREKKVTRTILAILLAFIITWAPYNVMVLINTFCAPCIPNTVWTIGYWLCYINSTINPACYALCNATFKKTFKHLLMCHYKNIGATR
Method in brief: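 Agonist-mode Ca++ flux in CHO-K1 cells stably expressing human CHRM2, dye-loaded, then held 60 min at room temperature in buffer with 20 μM ATP before compound addition; traces read over 3 minutes. Four-parameter fit of triplicate wells; percent activity relative to Carbachol EC100.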

[2] = target: T2, human cloned CHRM4 receptor (M4_CHO cells) (Homo sapiens, UniProt P08173); test: CHRM4 Ca++ Flux Assay (agonist mode, FDSS 7000EX); assay type: cell-based; details: for Emax: Percent Activity, read-out: M4 FDSS PA; for EC50: geometric mean if tested more than once, read-out: M4 FDSS EC50
T2 construct: expressed in transfected cells; host or cells: CHO-K1
T2 sequence (P08173 1-479): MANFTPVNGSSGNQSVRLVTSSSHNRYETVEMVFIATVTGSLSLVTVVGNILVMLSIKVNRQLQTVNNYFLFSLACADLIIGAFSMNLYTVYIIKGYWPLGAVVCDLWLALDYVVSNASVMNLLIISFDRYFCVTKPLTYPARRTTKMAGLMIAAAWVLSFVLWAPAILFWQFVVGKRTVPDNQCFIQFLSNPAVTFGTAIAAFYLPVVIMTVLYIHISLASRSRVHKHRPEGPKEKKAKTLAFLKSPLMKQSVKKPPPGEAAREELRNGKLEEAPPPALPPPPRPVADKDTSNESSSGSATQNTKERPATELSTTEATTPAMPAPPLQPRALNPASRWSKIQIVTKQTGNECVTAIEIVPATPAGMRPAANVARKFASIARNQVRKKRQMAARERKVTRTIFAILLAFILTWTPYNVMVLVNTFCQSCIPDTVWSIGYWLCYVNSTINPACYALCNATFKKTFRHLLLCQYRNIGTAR
Method in brief: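 M4_CHO cells loaded with a Ca++ dye for at least 1 h were held 60 min at room temperature in HEPES/probenecid buffer with 20 μM ATP. Ca++ flux after an 11-point compound dose, in triplicate and agonist mode, was recorded over 3 min. Four-parameter fits gave curves, with activity expressed relative to the Carbachol EC100.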

Emax [1] [%] | Emax [2] [%] | EC50 [2] [nM] | EC50 [1] [nM] | SMILES
0 | 61 | 9 |  | O=C(C1COC1)N1CC2(CC[C@@H](N3CCC(c4ccccc4OC4CCCC4)CC3)C2)C1 [Example 7G, (R)-(6-(4-(2-(cyclopentyloxy)phenyl)piperidin-1-yl)-2-azaspiro[3.4]octan-2-yl)(oxetan-3-yl)methanone]
9 | 48 | 7 | 724 | O=C(C1COC1)N1CC2(CC[C@@H](N3CCC(c4ccccc4OCCC(F)(F)F)CC3)C2)C1 [Example 7GG, (R)-oxetan-3-yl(6-(4-(2-(3,3,3-trifluoropropoxy)phenyl)piperidin-1-yl)-2-azaspiro[3.4]octan-2-yl)methanone]
16 | 50 | 19 | 154 | COC(C)(C)COc1ccccc1C1CCN([C@@H]2CCC3(C2)CN(C(=O)C2COC2)C3)CC1 [Example 7HH, (R)-(6-(4-(2-(2-methoxy-2-methylpropoxy)phenyl)piperidin-1-yl)-2-azaspiro[3.4]octan-2-yl)(oxetan-3-yl)methanone]
16 | 55 | 7 | 123 | O=C(C1COC1)N1CC2(CC[C@@H](N3CCC(c4ccccc4OCC4CC4)CC3)C2)C1 [Example 7I, (R)-(6-(4-(2-(cyclopropylmethoxy)phenyl)piperidin-1-yl)-2-azaspiro[3.4]octan-2-yl)(oxetan-3-yl)methanone]
12 | 50 | 9 | 6880 | O=C(C1COC1)N1CC2(CC[C@@H](N3CCC(c4ccccc4OCC4(C(F)(F)F)CC4)CC3)C2)C1 [Example 7II, (R)-oxetan-3-yl(6-(4-(2-((1-(trifluoromethyl)cyclopropyl)methoxy)phenyl)piperidin-1-yl)-2-azaspiro[3.4]octan-2-yl)methanone]
33 |  | 6 | 207 | CCOc1ccccc1C1CCN([C@@H]2CCC3(C2)CN(C(=O)C2COC2)C3)CC1 [Example 7J, (R)-(6-(4-(2-ethoxyphenyl)piperidin-1-yl)-2-azaspiro[3.4]octan-2-yl)(oxetan-3-yl)methanone]
22 | 49 | 2 | 98 | O=C(C1COC1)N1CC2(CC[C@@H](N3CCC(c4ccccc4OCC(F)F)CC3)C2)C1 [Example 7JJ, (R)-(6-(4-(2-(2,2-difluoroethoxy)phenyl)piperidin-1-yl)-2-azaspiro[3.4]octan-2-yl)(oxetan-3-yl)methanone]
23 | 76 | 9 | 590 | CC(C)Oc1ccccc1C1CCN([C@@H]2CCC3(C2)CN(C(=O)C2COC2)C3)CC1 [Example 7K, (R)-(6-(4-(2-isopropoxyphenyl)piperidin-1-yl)-2-azaspiro[3.4]octan-2-yl)(oxetan-3-yl)methanone]
21 | 47 | 2 | 91 | O=C(C1COC1)N1CC2(CC[C@@H](N3CCC(c4ccccc4OCCC4COC4)CC3)C2)C1 [Example 7KK, (R)-oxetan-3-yl(6-(4-(2-(2-(oxetan-3-yl)ethoxy)phenyl)piperidin-1-yl)-2-azaspiro[3.4]octan-2-yl)methanone]
0 | 58 | 20 |  | CC(C)(O)COc1ccccc1C1CCN([C@@H]2CCC3(C2)CN(C(=O)C2COC2)C3)CC1 [Example 7L, (R)-(6-(4-(2-(2-hydroxy-2-methylpropoxy)phenyl)piperidin-1-yl)-2-azaspiro[3.4]octan-2-yl)(oxetan-3-yl)methanone]
18 | 73 | 2 | 110000 | O=C(C1COC1)N1CC2(CC[C@@H](N3CCC(c4ccccc4OC(F)(F)F)CC3)C2)C1 [Example 12A, (R)-oxetan-3-yl(6-(4-(2-(trifluoromethoxy)phenyl)piperidin-1-yl)-2-azaspiro[3.4]octan-2-yl)methanone]

SMILES | Emax [1] [%] | Emax [2] [%] | EC50 [2] [nM] | EC50 [1] [nM]
O=C(C1COC1)N1CC2(CC[C@@H](N3CCC(c4ccccc4OC4CCC4)CC3)C2)C1 [Example 7H, (R)-(6-(4-(2-cyclobutoxyphenyl)piperidin-1-yl)-2-azaspiro[3.4]octan-2-yl)(oxetan-3-yl)methanone] | 0 | 70 | 4 | 
